Experimental data taken from a melting point compilation (Tetko et al.; mined from patent text by program, amines drawn as free bases though some values may be those of a salt).

melting point | Compound
85 to 87 °C | Clc1ccc(COCCOc2ccc(-c3ccccc3)cc2)cc1
98 to 100 °C | CS(=O)(=O)c1ccc(-c2cc(C=O)cn2-c2ccc(F)cc2)cc1
118 to 122 °C | CC(C)n1c(-c2ccccc2)cc(-c2ccc(F)cc2)c1C=O
116 to 118 °C | COc1ccc2c(c1)OC(CCO)C(=O)N2Cc1cccc([N+](=O)[O-])c1 (configuration not stated)
132 to 133 °C | COc1ccc(C(=O)c2c(N)sc(C)c2C)cc1
92 to 94 °C | Cn1cc(C=O)c2cccc(F)c21
95 to 100 °C | CC(=O)OCc1c(CNC(=O)c2ccc(C(=O)O)cc2)ccc2c1C(C)(C)CCC2(C)C
152 to 154 °C | Cc1ccc(-c2nnc(N3CCC(CO)CC3)nc2-c2ccc(C)cc2)cc1
116 to 117 °C | COc1ccc(-c2nc(C(C)=O)cn2-c2ccc(OC)cc2)cc1
90 to 91 °C | CCC(Sc1cc2ccccc2n1C)(C(=O)OC)c1ccccc1 (configuration not stated)
64 to 66 °C | CCCCC1=NC2(CCCC2)C(=O)N1Cc1ccc(-c2ccccc2S(=O)(=O)Nc2noc(C)c2C)c(CCC)c1
112 to 130 °C | CC(=O)Nc1nc2c(Oc3cc(-c4ccc(C(F)(F)F)cc4)c(-c4ccc(F)cc4)cn3)cccc2s1
301 to 307 °C | O=C(O)c1ccc(-c2nnc(-c3ccc(OC(F)(F)C(F)(F)F)cc3)o2)cc1
202 to 204 °C | COC(=O)COC(=O)C(Cc1cc(=O)[nH]c2ccccc12)NC(=O)c1ccc(Cl)cc1 (configuration not stated)
254 to 255 °C | O=c1c(/C=C/c2nnn[nH]2)coc2ccccc12
110 to 111 °C | O=c1ccc(-c2cccc(Br)c2)nn1CN1CCOCC1
144 to 145 °C | CC(C)(C)c1cc(C(=O)CCCCOc2ccc(C(=O)C(=O)O)cc2)cc(C(C)(C)C)c1O
173 to 174 °C | Cc1ccc(-c2c(NS(=O)(=O)c3ccc(C(C)(C)C)cc3)ncnc2OCCOc2ccc(NC(=O)c3ccccc3)cn2)cc1
124 to 125 °C | COC(=O)Cc1cccc2c1Sc1ccccc1S2

melting point | Compound
178 to 180 °C | CCn1cnc(C(N)=O)c1NC(=S)NC(=O)c1ccccc1
211 to 212 °C | O=C1CSc2c(ccc3ccccc23)N1
250 to 252 °C | N#Cc1ccc(S(=O)(=O)Nc2cccc3c(C#N)c[nH]c23)cc1
163 to 166 °C | COc1ccccc1N1CCN(CC2Cc3cc(C)c4[nH]c(=O)ccc4c3O2)CC1 (configuration not stated)
125 to 126 °C | N#Cc1ccc(OCC[C@@H](NC(=O)OCc2ccccc2)C(=O)OC(c2ccccc2)c2ccccc2)cc1
250 °C | Nc1ccc2ccc(Nc3ccccc3)nc2n1
148 °C | CC(=O)N(C(C)=O)c1ccc(Br)c([N+](=O)[O-])c1OCc1ccccc1
198 to 201 °C | COc1ccc(-c2cn[nH]c2N)cc1
91 to 92 °C | O=CNC1Cc2ccc([N+](=O)[O-])cc2C1 (configuration not stated)
198 to 199 °C | O=C(Nc1cccc(-c2ccnc3c(C(=O)c4cccs4)cnn23)c1)OCCCN1CCOCC1
154 °C | CCC(C)(C)c1ccc(S(=O)(=O)Nc2ncnc(OCCOc3ccc(Br)cn3)c2-c2ccc(C)cc2)cc1
39 to 41 °C | N#Cc1ccc(CCCCCO)cc1
266 to 267 °C | CCOC(=O)c1ncn2c3cccc(I)c3c(=O)n(C)c12
136 to 138 °C | CCCCCC(CC(=O)Nc1cc(C(=O)O)ccc1C(C)(C)C)c1ccc(C(=O)CCC)cc1OC (configuration not stated)
221 °C | Cc1ccnc(NC(=O)C2=C(O)c3ccc4ccccc4c3S(=O)(=O)N2C)c1
160 °C | Nc1nnc(C(CCc2ccccc2)NC(=O)c2ccc3[nH]c(-c4ccncc4)nc3c2)o1 (configuration not stated)
160 to 161 °C | O=C(O)c1cc(Cl)cc([N+](=O)[O-])c1NCc1ccccc1Cl
207 to 211 °C | CC(C)c1ccc2nc3ccc(C#N)cc3c(=O)n2c1

The next lines start with the compound.

Compound | melting point
COC(=O)C1(C(=O)Nc2ccc(Br)cc2C)CC1 | 106 to 108 °C
Cc1nc[nH]c1CSCCNC1=NCCS(=O)(=O)N1 | 146 to 147 °C
CC(C)(CO)c1cnc(-c2nn(-c3ccc(F)cc3F)c3c2C2CCC3C2)o1 (configuration not stated) | 66 to 68 °C
O=C1C=NC(c2ccccc2)O1 (configuration not stated) | 90 °C
Cn1nc2c([N+](=O)[O-])cc3nc(O)c(O)nc3c2n1 | > 300 °C
O=c1[nH]c(=O)n(C2CC(Cl)C(CCl)O2)cc1C=CBr (configuration not stated) | 184 °C
CCCCCC(=O)OC1(c2nc(OC)cc(OC)n2)OC(=O)c2c(Cl)ccc(Cl)c21 (configuration not stated) | 103 to 105 °C
CCOC(=O)C1CN(C(=O)OCc2ccccc2)CC1=O (configuration not stated) | 56.6 to 59.7 °C
BrCc1ccc2c(c1)CCO2 | 57 to 60 °C
Cc1cc(C)n(CC2CC3c4cccc5[nH]cc(c45)CC3N(C)C2)n1 (configuration not stated) | 187 to 190 °C
CC(C)(C)CC(C)(C)c1cc(O)c(Sc2ccccc2)c(Sc2nnnn2-c2ccccc2)c1O | 147 °C
CC(O)=C(C#N)C(=O)Nc1ccc(C(F)(F)F)cc1 | 230 to 233 °C
CCOC(=O)c1cnc2c(c(C)nc3cc(C)nn32)c1Cl | 143 to 145 °C
CSCCC(NC=O)C(N)=O (racemic) | 121 to 122 °C
CC(C)C[C@@H](/C=C/CCO)NP(=O)(c1ccccc1)c1ccccc1 | 124 °C
CCOC(=O)CON1C(=O)C(=O)N(c2cc(Cl)ccc2C)C1=S | 157 to 159 °C
O=C(NCCO)c1c([N+](=O)[O-])ccc(N(CCBr)CCBr)c1[N+](=O)[O-] | 94 to 97 °C
CCOC(=O)c1ncn(-c2nccs2)c1S | 155 to 158 °C

Compound | melting point
CCOC(=O)NN=Cc1cc(-n2c(=O)cc(C(F)(F)F)n(C)c2=O)ccc1Cl | 111 to 116 °C
Nc1c(Cl)cc(C(O)CNCCCCCC(=O)OCCc2ccsc2)cc1Cl (configuration not stated) | 71 to 73 °C
COC(=O)C(=O)N1C(=O)[C@H](N2C(=O)c3ccccc3C2=O)[C@H]1Cl | 49 to 52 °C
O=C1CN=C(c2ccccc2Cl)c2cc(I)ccc2N1 | 260 to 262 °C
Cc1cnc2c(c1)C(=O)N(C(C)C)C2=O | 127 to 128 °C
OCC1(CO)CN(Cc2ccccc2)C1 | 86 to 87 °C
CC(C)NC(=O)c1cc(-n2c(=O)cc(C(F)(F)F)[nH]c2=O)c(F)cc1Cl | 234 to 239 °C
CON(Cc1ccc(C)c(F)c1)C(=O)C1=C(O)C(=O)N(C)C1 | 145 °C
CN(C)C(=O)C=Cc1c(C#N)cnn1-c1ncc(C(F)(F)F)cc1Cl | 116 to 120 °C
N#CNC(=NCCO[N+](=O)[O-])c1ccc(N)nc1 | 108 °C
CCOC(=O)C1=C(C)NC(=S)N(C(=O)OCC)C1c1ccc(OC)cc1 (configuration not stated) | 130 to 132 °C
CC1CCC(C(C)C)C(OC(=O)C2(CC(=O)OC(C)(C)C)C(=O)N(Cc3ccc(Br)cc3F)C(=O)c3cccn32)C1 (configuration not stated) | 99 to 100 °C
N#Cc1nn(-c2c(Cl)cc(C(F)(F)F)cc2Cl)c(N)c1C1CC1(Br)Br (configuration not stated) | 178 to 179 °C
O=c1[nH]c(=O)c2ccsc2[nH]1 | > 300 °C
COc1cc(C)c(C(=O)c2c(C(F)(F)F)cc(Cl)nc2Cl)c(OC)c1OC | 81 to 83 °C
Cc1nc(-c2ccc(Cl)cc2)c(CBr)o1 | 75 to 76 °C
Cn1c(COc2ccc(CC3SC(=O)NC3=O)cc2)nc2ccc(OCCc3ccc(NC(=O)Nc4ccc(C(F)(F)F)cc4)cc3)cc21 (configuration not stated) | 145 to 147 °C
